Values of other authors as cited in publication PMC9516332 (Frontiers in Oncology, 2022).
Like-named read-outs stand apart in the source and are kept apart here.

Assays:
Conditions in all cases: cited from earlier work
[1] = target: panel of 255 wild-type kinases (Homo sapiens, UniProt Q96SB4)
[2] = target: panel of 255 wild-type kinases (Homo sapiens, UniProt P11309)
[3] = target: panel of 255 wild-type kinases (Homo sapiens, UniProt P53779)
[4] = target: panel of 255 wild-type kinases (Homo sapiens, UniProt O95819)
[5] = target: panel of 255 wild-type kinases (Homo sapiens, UniProt Q9Y6E0)
[6] = target: panel of 255 wild-type kinases (Homo sapiens, UniProt Q9HBH9)
[7] = target: panel of 255 wild-type kinases (Homo sapiens, UniProt Q9Y243)
[8] = target: panel of 255 wild-type kinases (Homo sapiens, UniProt P49759)
[9] = target: panel of 255 wild-type kinases (Homo sapiens, UniProt P05771)
[10] = target: T1, panel of 255 wild-type kinases (Homo sapiens, UniProt Q13237)
T1 sequence (Q13237 1-762): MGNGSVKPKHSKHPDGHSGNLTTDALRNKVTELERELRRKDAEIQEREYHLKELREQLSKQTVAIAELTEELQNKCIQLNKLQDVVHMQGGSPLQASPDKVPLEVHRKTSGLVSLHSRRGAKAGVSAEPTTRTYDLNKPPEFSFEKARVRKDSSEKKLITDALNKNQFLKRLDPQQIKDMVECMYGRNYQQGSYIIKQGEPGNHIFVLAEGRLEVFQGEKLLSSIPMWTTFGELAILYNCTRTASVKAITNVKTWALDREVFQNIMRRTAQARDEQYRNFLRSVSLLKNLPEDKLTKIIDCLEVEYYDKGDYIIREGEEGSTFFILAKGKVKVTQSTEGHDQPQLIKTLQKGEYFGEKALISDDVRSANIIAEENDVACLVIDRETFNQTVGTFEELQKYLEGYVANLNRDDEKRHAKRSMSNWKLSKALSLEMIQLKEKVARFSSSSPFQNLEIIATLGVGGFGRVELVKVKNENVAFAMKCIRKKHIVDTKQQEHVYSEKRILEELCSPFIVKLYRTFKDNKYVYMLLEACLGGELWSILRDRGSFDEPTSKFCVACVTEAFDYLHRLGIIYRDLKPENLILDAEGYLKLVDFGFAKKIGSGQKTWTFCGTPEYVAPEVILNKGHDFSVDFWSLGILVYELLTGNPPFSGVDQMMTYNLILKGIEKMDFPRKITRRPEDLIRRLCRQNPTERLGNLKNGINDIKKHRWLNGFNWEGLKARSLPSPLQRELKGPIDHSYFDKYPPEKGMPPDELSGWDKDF

[11] = target: panel of 255 wild-type kinases (Homo sapiens, UniProt P09619)
[12] = target: panel of 255 wild-type kinases (Homo sapiens, UniProt P31751)
[13] = target: panel of 255 wild-type kinases (Homo sapiens, UniProt P08069)
[14] = target: panel of 255 wild-type kinases (Homo sapiens, UniProt P54756)
[15] = target: panel of 255 wild-type kinases (Homo sapiens, UniProt Q16654)
[16] = target: panel of 255 wild-type kinases (Homo sapiens, UniProt Q13153)
[17] = target: panel of 255 wild-type kinases (Homo sapiens, UniProt P29597)
[18] = target: panel of 255 wild-type kinases (Homo sapiens, UniProt Q14012)
[19] = kinase SRPK1, 1 µmol/L single concentration, ref DOI: 10.1158/1535-7163.MCT-18-0877
[20] = kinase PIM1, 1 µmol/L single concentration, ref DOI: 10.1158/1535-7163.MCT-18-0877
[21] = kinase JNK3, 1 µmol/L single concentration, ref DOI: 10.1158/1535-7163.MCT-18-0877
[22] = kinase HGK, 1 µmol/L single concentration, ref DOI: 10.1158/1535-7163.MCT-18-0877
[23] = MST3, 1 µmol/L single concentration, ref DOI: 10.1158/1535-7163.MCT-18-0877
[24] = MNK2, 1 µmol/L single concentration, ref DOI: 10.1158/1535-7163.MCT-18-0877
[25] = AKT3 kinase assay, 1 µmol/L single concentration, ref DOI: 10.1158/1535-7163.MCT-18-0877
[26] = kinase CLK1, 1 µmol/L single concentration, ref DOI: 10.1158/1535-7163.MCT-18-0877
[27] = kinase PKCβ1, 1 µmol/L single concentration, ref DOI: 10.1158/1535-7163.MCT-18-0877
[28] = CGK2 kinase assay, 1 µmol/L single concentration, ref DOI: 10.1158/1535-7163.MCT-18-0877
[29] = kinase PDGFRβ, 1 µmol/L single concentration, ref DOI: 10.1158/1535-7163.MCT-18-0877
[30] = AKT2 kinase assay, 1 µmol/L single concentration, ref DOI: 10.1158/1535-7163.MCT-18-0877
[31] = kinase IGF1R, 1 µmol/L single concentration, ref DOI: 10.1158/1535-7163.MCT-18-0877
[32] = kinase EPHA5, 1 µmol/L single concentration, ref DOI: 10.1158/1535-7163.MCT-18-0877
[33] = kinase PDHK4, 1 µmol/L single concentration, ref DOI: 10.1158/1535-7163.MCT-18-0877
[34] = PAK1, 1 µmol/L single concentration, ref DOI: 10.1158/1535-7163.MCT-18-0877
[35] = kinase TYK2, 1 µmol/L single concentration, ref DOI: 10.1158/1535-7163.MCT-18-0877
[36] = CaMK1α kinase assay, 1 µmol/L single concentration, ref DOI: 10.1158/1535-7163.MCT-18-0877

SMILES | %-inhibition at 1 µmol/L, SRPK1 [1, 19] [%] | %-inhibition at 1 µmol/L, PIM1 [2, 20] [%] | %-inhibition at 1 µmol/L, JNK3 [3, 21] [%] | %-inhibition at 1 µmol/L, HGK [4, 22] [%] | %-inhibition, MST3 [5, 23] [%] | %-inhibition, MNK2 [6, 24] [%] | %-inhibition AKT3 [7, 25] [%] | %-inhibition at 1 µmol/L, CLK1 [8, 26] [%] | %-inhibition at 1 µmol/L, PKCβ1 [9, 27] [%] | %-inhibition CGK2 [10, 28] [%] | %-inhibition at 1 µmol/L, PDGFRβ [11, 29] [%] | %-inhibition AKT2 [12, 30] [%] | %-inhibition at 1 µmol/L, IGF1R [13, 31] [%] | %-inhibition at 1 µmol/L, EPHA5 [14, 32] [%] | %-inhibition at 1 µmol/L, PDHK4 [15, 33] [%] | %-inhibition, PAK1 [16, 34] [%] | %-inhibition at 1 µmol/L, TYK2 [17, 35] [%] | %-inhibition CaMK1α [18, 36] [%] | further results
CCc1cc2c(cc1N1CCC(N3CCOCC3)CC1)C(C)(C)c1[nH]c3cc(C#N)ccc3c1C2=O [alectinib] | 83 | 15 | -0.533 | 20 | -2.37 | 13 | -0.889 | 43 | -1.89 | 7.53 | 26 | 0.306 | 10 | 2.67 | 1.7 | -14 | 14 | 2.11 | 
COc1cc(N2CCC(N3CCN(C)CC3)CC2)ccc1Nc1ncc(Cl)c(Nc2ccccc2P(C)(C)=O)n1 [brigatinib] |  |  |  |  |  |  |  |  |  |  |  |  |  |  |  |  |  |  | %-inhibition at 1 µmol/L, SRPK1 [1]: 4%; %-inhibition at 1 µmol/L, PIM1 [2]: 3%; %-inhibition at 1 µmol/L, JNK3 [3]: 52%; %-inhibition at 1 µmol/L, HGK [4]: 18%; %-inhibition, MST3 [5]: 13%; %-inhibition, MNK2 [6]: 66%; %-inhibition AKT3 [7]: -0.864%; %-inhibition at 1 µmol/L, CLK1 [8]: 100%; %-inhibition at 1 µmol/L, PKCβ1 [9]: 7.42%; %-inhibition CGK2 [10]: 37%; %-inhibition at 1 µmol/L, PDGFRβ [11]: 94%; %-inhibition AKT2 [12]: -1%; %-inhibition at 1 µmol/L, IGF1R [13]: 99%; %-inhibition at 1 µmol/L, EPHA5 [14]: 4%; %-inhibition at 1 µmol/L, PDHK4 [15]: 5%; %-inhibition, PAK1 [16]: 4.27%; %-inhibition at 1 µmol/L, TYK2 [17]: 23%; %-inhibition CaMK1α [18]: 28%
O=C(c1ccc(F)c(F)c1Nc1ccc(I)cc1F)N1CC(O)([C@@H]2CCCCN2)C1 [cobimetinib] | -11 | 1 | -0.412 | 2.27 | 4.62 | 8 | -3.43 | -0.28 | -4.35 | 0.273 | 2 | -2.75 | 6 | 1.26 | -1.13 | 3.21 | 6.35 | 9 | 
C=CC(=O)Nc1cc(Nc2nccc(-c3cn(C)c4ccccc34)n2)c(OC)cc1N(C)CCN(C)C [osimertinib] | -9 | -4.4 | 1.89 | 80 | 5.71 | 97 | -1.74 | 47 | 9 | 11 | 87 | 2.2 | 84 | -0.189 | 0.264 | -44 | 9 | 10 | 
CC(=O)Nc1cccc(-n2c(=O)n(C3CC3)c(=O)c3c(Nc4ccc(I)cc4F)n(C)c(=O)c(C)c32)c1 [trametinib] |  |  |  |  |  |  |  |  |  |  |  |  |  |  |  |  |  |  | %-inhibition at 1 µmol/L, SRPK1 ([1]; kinase SRPK1, 1 µmol/L single concentration, ref DOI: 10.1371/journal.pone.0092146): -0.0691%; %-inhibition at 1 µmol/L, PIM1 ([2]; kinase PIM1, 1 µmol/L single concentration, ref DOI: 10.1371/journal.pone.0092146): 4.44%; %-inhibition at 1 µmol/L, JNK3 ([3]; kinase JNK3, 1 µmol/L single concentration, ref DOI: 10.1371/journal.pone.0092146): -2.37%; %-inhibition at 1 µmol/L, HGK ([4]; kinase HGK, 1 µmol/L single concentration, ref DOI: 10.1371/journal.pone.0092146): -3.71%; %-inhibition, MST3 ([5]; MST3, 1 µmol/L single concentration, ref DOI: 10.1371/journal.pone.0092146): 1.75%; %-inhibition, MNK2 ([6]; MNK2, 1 µmol/L single concentration, ref DOI: 10.1371/journal.pone.0092146): -11%; %-inhibition AKT3 ([7]; AKT3 kinase assay, 1 µmol/L single concentration, ref DOI: 10.1371/journal.pone.0092146): -5.3%; %-inhibition at 1 µmol/L, CLK1 ([8]; kinase CLK1, 1 µmol/L single concentration, ref DOI: 10.1371/journal.pone.0092146): -0.618%; %-inhibition at 1 µmol/L, PKCβ1 ([9]; kinase PKCβ1, 1 µmol/L single concentration, ref DOI: 10.1371/journal.pone.0092146): -3.47%; %-inhibition CGK2 ([10]; CGK2 kinase assay, 1 µmol/L single concentration, ref DOI: 10.1371/journal.pone.0092146): -2.61%; %-inhibition at 1 µmol/L, PDGFRβ ([11]; kinase PDGFRβ, 1 µmol/L single concentration, ref DOI: 10.1371/journal.pone.0092146): 3.44%; %-inhibition AKT2 ([12]; AKT2 kinase assay, 1 µmol/L single concentration, ref DOI: 10.1371/journal.pone.0092146): -8%; %-inhibition at 1 µmol/L, IGF1R ([13]; kinase IGF1R, 1 µmol/L single concentration, ref DOI: 10.1371/journal.pone.0092146): -10%; %-inhibition at 1 µmol/L, EPHA5 ([14]; kinase EPHA5, 1 µmol/L single concentration, ref DOI: 10.1371/journal.pone.0092146): -2.67%; %-inhibition at 1 µmol/L, PDHK4 ([15]; kinase PDHK4, 1 µmol/L single concentration, ref DOI: 10.1371/journal.pone.0092146): -1.65%; %-inhibition, PAK1 ([16]; PAK1, 1 µmol/L single concentration, ref DOI: 10.1371/journal.pone.0092146): -1.35%; %-inhibition at 1 µmol/L, TYK2 ([17]; kinase TYK2, 1 µmol/L single concentration, ref DOI: 10.1371/journal.pone.0092146): 2.16%; %-inhibition CaMK1α ([18]; CaMK1α kinase assay, 1 µmol/L single concentration, ref DOI: 10.1371/journal.pone.0092146): -2%
